Assay results published in patent US20130203591A1, “PESTICIDAL MIXTURES INCLUDING ISOXAZOLINE DERIVATIVES” (SYNGENTA CROP PROTECTION LLC, priority 2010, published 2013).

How the values were obtained:
Type in all cases: cell-based
[1] = test system: Botrvtis cinerea; test: Botrytis cinerea (gray mould) growth inhibition in nutrient broth, microtiter plate
Protocol: Botrvtis cinerea (Gray Mould):
(§1) Conidia of the fungus from cryogenic storage were directly mixed into nutrient broth (potato dextrose broth). After placing a (DMSO) solution of the test compounds into a microtiter plate (96-well format) the nutrient broth containing the fungal spores was added. The test plates were incubated at 24° C. and the inhibition of growth was determined photometrically after 72 hours.

[2] = test system: Glomerella lagenarium (syn. Colletotrichum lagenarium); test: Glomerella lagenarium (anthracnose of cucurbits) growth inhibition in nutrient broth, microtiter plate
Protocol: Glomerella lagenarium (syn. Colletotrichum lagenarium), Anthracnose of Cucurbits:
as §1, with “hours at 620 nm.” for “hours.”

[3] = test system: Septoria tritici; test: Septoria tritici (leaf blotch) growth inhibition in nutrient broth, microtiter plate
Protocol: Septoria tritici (Leaf Blotch):
as §1

[4] = test system: Mycosphaerella arachidis (syn. Cercospora arachidicola); test: Mycosphaerella arachidis (brown leaf spot of groundnut) growth inhibition in nutrient broth, microtiter plate
Protocol: Mycosphaerella arachidis (syn. Cercospora arachidicola), Brown Leaf Spot of Groundnut (Peanut):
as §1, with “approximately 5-6 days at 620 nm.” for “72 hours.”

[5] = test system: Fusarium culmorum; test: Fusarium culmorum (root rot) growth inhibition in nutrient broth, microtiter plate; conditions: for AVERAGE DEAD IN % Epoxiconazole: Epoxiconazole alone; for AVERAGE DEAD IN % Epoxiconazole / AVERAGE DEAD IN % COMPOUND I-A2: 48 hrs, 24° C.; for AVERAGE DEAD IN % COMPOUND I-A2: COMPOUND I-A2 alone
Protocol: Fusarium culmorum (Root Rot):
as §1, with “48 hrs.” for “72 hours.”

[6] = Pyraclostrobin alone 0.5 ppm AI
[7] = Pyraclostrobin alone 0.00390625 ppm AI
[8] = Epoxiconazole alone 0.25 ppm AI
[9] = Epoxiconazole alone 0.0078125 ppm AI
[10] = Epoxiconazole alone 0.015625 ppm AI
[11] = Epoxiconazole alone 0.03125 ppm AI
[12] = Azoxystrobin alone 0.015625 ppm AI
[13] = Azoxystrobin alone 0.03125 ppm AI
[14] = Azoxystrobin alone 0.0625 ppm AI
[15] = Fluxapyroxad alone 0.125 ppm AI

SMILES: COC(=O)N(OC)c1ccccc1COc1ccn(-c2ccc(Cl)cc2)n1 [Pyraclostrobin]
- AVERAGE DEAD IN % ([1]; Pyraclostrobin alone 0.125 ppm AI): 20%
- AVERAGE DEAD IN % ([1]; Pyraclostrobin alone 0.25 ppm AI): 20%
- AVERAGE DEAD IN % [1, 6]: 20%
- AVERAGE DEAD IN % ([1]; Pyraclostrobin alone 1 ppm AI): 50%
- AVERAGE DEAD IN % ([1]; Pyraclostrobin alone 2 ppm AI): 70%
- AVERAGE DEAD IN % [2, 7]: 70%
- AVERAGE DEAD IN % ([2]; Pyraclostrobin alone 0.0078125 ppm AI): 90%
- AVERAGE DEAD IN % [3, 7]: 90%
- AVERAGE DEAD IN % [4, 7]: 90%
- AVERAGE DEAD IN % [5, 6]: 20%
- AVERAGE DEAD IN % ([5]; Pyraclostrobin alone 1 ppm AI): 20%
- AVERAGE DEAD IN % ([5]; Pyraclostrobin alone 2 ppm AI): 20%

SMILES: Fc1ccc([C@]2(Cn3cncn3)O[C@H]2c2ccccc2Cl)cc1 (racemic) [Epoxiconazole]
- AVERAGE DEAD IN % [1, 8]: 20%
- AVERAGE DEAD IN % ([1]; Epoxiconazole alone 0.5 ppm AI): 90%
- AVERAGE DEAD IN % ([1]; Epoxiconazole alone 1 ppm AI): 100%
- AVERAGE DEAD IN % ([1]; Epoxiconazole alone 2 ppm AI): 100%
- AVERAGE DEAD IN % [2, 8]: 20%
- AVERAGE DEAD IN % ([2]; Epoxiconazole alone 0.5 ppm AI): 50%
- AVERAGE DEAD IN % ([2]; Epoxiconazole alone 1 ppm AI): 70%
- AVERAGE DEAD IN % ([2]; Epoxiconazole alone 2 ppm AI): 90%
- AVERAGE DEAD IN % [3, 9]: 0%
- AVERAGE DEAD IN % [3, 10]: 0%
- AVERAGE DEAD IN % [3, 11]: 20%
- AVERAGE DEAD IN % ([3]; Epoxiconazole alone 0.0625 ppm AI): 50%
- AVERAGE DEAD IN % ([3]; Epoxiconazole alone 0.125 ppm AI): 70%
- AVERAGE DEAD IN % [3, 8]: 90%
- AVERAGE DEAD IN % ([3]; Epoxiconazole alone 0.5 ppm AI): 90%
- AVERAGE DEAD IN % ([3]; Epoxiconazole alone 1 ppm AI): 90%
- AVERAGE DEAD IN % ([3]; Epoxiconazole alone 2 ppm AI): 90%
- AVERAGE DEAD IN % [4, 9]: 0%
- AVERAGE DEAD IN % [4, 10]: 0%
- AVERAGE DEAD IN % [4, 11]: 20%
- AVERAGE DEAD IN % Epoxiconazole ([5]; 0.125 PPM AI): 20%
- AVERAGE DEAD IN % Epoxiconazole ([5]; 0.25 PPM AI): 20%
- AVERAGE DEAD IN % Epoxiconazole ([5]; 0.5 PPM AI): 20%
- AVERAGE DEAD IN % Epoxiconazole ([5]; 1 PPM AI): 20%
- AVERAGE DEAD IN % Epoxiconazole ([5]; 2 PPM AI): 20%

SMILES: CO/C=C(/C(=O)OC)c1ccccc1Oc1cc(Oc2ccccc2C#N)ncn1 [Azoxystrobin]
- AVERAGE DEAD IN % [2, 12]: 20%
- AVERAGE DEAD IN % [2, 13]: 50%
- AVERAGE DEAD IN % [2, 14]: 70%
- AVERAGE DEAD IN % ([2]; Azoxystrobin alone 0.125 ppm AI): 90%
- AVERAGE DEAD IN % [3, 13]: 20%
- AVERAGE DEAD IN % [3, 14]: 70%
- AVERAGE DEAD IN % ([4]; Azoxystrobin alone 0.0078125 ppm AI): 0%
- AVERAGE DEAD IN % [4, 12]: 20%
- AVERAGE DEAD IN % [4, 13]: 70%
- AVERAGE DEAD IN % [4, 14]: 90%

SMILES: Cc1cc(C2=NOC(c3cc(Cl)cc(Cl)c3)(C(F)(F)F)C2)ccc1C(=O)NCC(=O)NCC(F)(F)F (stereo not drawn) [I-A2]
- AVERAGE DEAD IN % ([1]; I-A2 alone 0.46875 ppm AI): 0%
- AVERAGE DEAD IN % ([1]; I-A2 alone 0.9375 ppm AI): 0%
- AVERAGE DEAD IN % ([1]; I-A2 alone 1.875 ppm AI): 0%
- AVERAGE DEAD IN % ([1]; I-A2 alone 3.75 ppm AI): 0%
- AVERAGE DEAD IN % ([1]; I-A2 alone 7.5 ppm AI): 0%
- AVERAGE DEAD IN % ([1]; I-A2 alone 15 ppm AI): 0%
- AVERAGE DEAD IN % ([1]; I-A2 alone 30 ppm AI): 0%
- AVERAGE DEAD IN % ([1]; I-A2 alone 60 ppm AI): 0%
- AVERAGE DEAD IN % ([2]; I-A2 alone 0.1171875 ppm AI): 0%
- AVERAGE DEAD IN % ([2]; I-A2 alone 0.234375 ppm AI): 0%
- AVERAGE DEAD IN % ([2]; I-A2 alone 0.46875 ppm AI): 0%
- AVERAGE DEAD IN % ([2]; I-A2 alone 0.9375 ppm AI): 0%
- AVERAGE DEAD IN % ([2]; I-A2 alone 1.875 ppm AI): 0%
- AVERAGE DEAD IN % ([2]; I-A2 alone 3.75 ppm AI): 0%
- AVERAGE DEAD IN % ([2]; I-A2 alone 7.5 ppm AI): 0%
- AVERAGE DEAD IN % ([2]; I-A2 alone 15 ppm AI): 0%
- AVERAGE DEAD IN % ([2]; I-A2 alone 30 ppm AI): 0%
- AVERAGE DEAD IN % ([2]; I-A2 alone 60 ppm AI): 0%
- AVERAGE DEAD IN % ([3]; I-A2 alone 0.1171875 ppm AI): 0%
- AVERAGE DEAD IN % ([3]; I-A2 alone 0.234375 ppm AI): 0%
- AVERAGE DEAD IN % ([3]; I-A2 alone 0.46875 ppm AI): 0%
- AVERAGE DEAD IN % ([3]; I-A2 alone 0.9375 ppm AI): 0%
- AVERAGE DEAD IN % ([3]; I-A2 alone 1.875 ppm AI): 0%
- AVERAGE DEAD IN % ([3]; I-A2 alone 3.75 ppm AI): 0%
- AVERAGE DEAD IN % ([3]; I-A2 alone 7.5 ppm AI): 0%
- AVERAGE DEAD IN % ([3]; I-A2 alone 15 ppm AI): 0%
- AVERAGE DEAD IN % ([3]; I-A2 alone 30 ppm AI): 0%
- AVERAGE DEAD IN % ([3]; I-A2 alone 60 ppm AI): 0%
- AVERAGE DEAD IN % ([4]; I-A2 alone 0.1171875 ppm AI): 0%
- AVERAGE DEAD IN % ([4]; I-A2 alone 0.234375 ppm AI): 0%
- AVERAGE DEAD IN % ([4]; I-A2 alone 0.46875 ppm AI): 0%
- AVERAGE DEAD IN % ([4]; I-A2 alone 0.9375 ppm AI): 0%
- AVERAGE DEAD IN % ([4]; I-A2 alone 1.875 ppm AI): 0%
- AVERAGE DEAD IN % ([4]; I-A2 alone 3.75 ppm AI): 0%
- AVERAGE DEAD IN % ([4]; I-A2 alone 7.5 ppm AI): 0%
- AVERAGE DEAD IN % ([4]; I-A2 alone 15 ppm AI): 0%
- AVERAGE DEAD IN % COMPOUND I-A2 ([5]; 0.9375 PPM AI): 0%
- AVERAGE DEAD IN % COMPOUND I-A2 ([5]; 1.875 PPM AI): 0%
- AVERAGE DEAD IN % COMPOUND I-A2 ([5]; 3.75 PPM AI): 0%
- AVERAGE DEAD IN % COMPOUND I-A2 ([5]; 7.5 PPM AI): 0%
- AVERAGE DEAD IN % COMPOUND I-A2 ([5]; 15 PPM AI): 0%
- AVERAGE DEAD IN % COMPOUND I-A2 ([5]; 30 PPM AI): 0%
- AVERAGE DEAD IN % COMPOUND I-A2 ([5]; 60 PPM AI): 0%
- AVERAGE DEAD IN % ([5]; I-A2 alone 3.75 ppm AI): 0%
- AVERAGE DEAD IN % ([5]; I-A2 alone 7.5 ppm AI): 0%
- AVERAGE DEAD IN % ([5]; I-A2 alone 15 ppm AI): 0%
- AVERAGE DEAD IN % ([5]; I-A2 alone 30 ppm AI): 0%
- AVERAGE DEAD IN % ([5]; I-A2 alone 60 ppm AI): 0%

SMILES: O=C(Nc1ccccc1-c1ccc(Cl)cc1)c1cccnc1Cl [Boscalid]
- AVERAGE DEAD IN % ([1]; Boscalid alone 0.0625 ppm AI): 20%
- AVERAGE DEAD IN % ([1]; Boscalid alone 0.125 ppm AI): 20%
- AVERAGE DEAD IN % ([1]; Boscalid alone 0.25 ppm AI): 20%
- AVERAGE DEAD IN % ([1]; Boscalid alone 0.5 ppm AI): 50%
- AVERAGE DEAD IN % ([1]; Boscalid alone 1 ppm AI): 70%
- AVERAGE DEAD IN % ([1]; Boscalid alone 2 ppm AI): 90%
- AVERAGE DEAD IN % ([3]; Boscalid alone 0.25 ppm AI): 20%
- AVERAGE DEAD IN % ([3]; Boscalid alone 0.5 ppm AI): 50%
- AVERAGE DEAD IN % ([3]; Boscalid alone 1 ppm AI): 90%
- AVERAGE DEAD IN % ([3]; Boscalid alone 2 ppm AI): 100%
- AVERAGE DEAD IN % ([4]; Boscalid alone 0.125 ppm AI): 70%
- AVERAGE DEAD IN % ([4]; Boscalid alone 0.25 ppm AI): 100%
- AVERAGE DEAD IN % ([4]; Boscalid alone 0.5 ppm AI): 100%

SMILES: Cn1cc(C(=O)Nc2ccccc2-c2cc(F)c(F)c(F)c2)c(C(F)F)n1 [Fluxapyroxad]
- AVERAGE DEAD IN % [3, 15]: 20%
- AVERAGE DEAD IN % ([3]; Fluxapyroxad alone 0.25 ppm AI): 70%
- AVERAGE DEAD IN % ([3]; Fluxapyroxad alone 0.5 ppm AI): 100%
- AVERAGE DEAD IN % ([3]; Fluxapyroxad alone 1 ppm AI): 100%
- AVERAGE DEAD IN % ([4]; Fluxapyroxad alone 0.015625 ppm AI): 0%
- AVERAGE DEAD IN % ([4]; Fluxapyroxad alone 0.03125 ppm AI): 20%
- AVERAGE DEAD IN % ([4]; Fluxapyroxad alone 0.0625 ppm AI): 50%
- AVERAGE DEAD IN % [4, 15]: 90%
- AVERAGE DEAD IN % ([4]; Fluxapyroxad alone 0.25 ppm AI): 100%
